Results published in patent publication US8293901B2, “MAPK/ERK kinase inhibitors” (Takeda Pharmaceutical Company Limited, priority 2006, dated 2012).

These molecules were tested against MEK1 (Homo sapiens, UniProt Q02750, DEL33-52/S218E/S222D) (assay: MEK1 inhibition, ERK1/FI-Erktide fluorescence polarization assay with IMAP beads).
Chain of MEK1 (Q02750 with tags, fused parts or gaps DEL33-52/S218E/S222D): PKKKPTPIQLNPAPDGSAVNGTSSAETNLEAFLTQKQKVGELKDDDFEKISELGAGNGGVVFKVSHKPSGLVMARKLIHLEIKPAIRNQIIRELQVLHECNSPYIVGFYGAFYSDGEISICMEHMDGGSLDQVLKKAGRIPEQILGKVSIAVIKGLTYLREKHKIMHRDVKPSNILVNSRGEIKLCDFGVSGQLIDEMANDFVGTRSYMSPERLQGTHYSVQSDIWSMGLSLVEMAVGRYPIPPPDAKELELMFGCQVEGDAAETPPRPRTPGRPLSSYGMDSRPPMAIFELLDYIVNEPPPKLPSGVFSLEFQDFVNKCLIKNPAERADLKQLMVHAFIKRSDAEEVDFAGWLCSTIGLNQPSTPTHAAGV

Compound | IC50 [nM]
Cc1c(Nc2ccc(I)cc2F)c2c(=O)n(C(CO)CO)cnc2n(C)c1=O [Example 43, 3-(1,3-Dihydroxypropan-2-yl)-5-(2-fluoro-4-iodophenylamino)-6,8-dimethylpyrido[2,3-d]pyrimidine-4,7(3H,8H)-dione] | 5 to 15
C#Cc1ccc(Nc2c(C)c(=O)n(C)c3ncn(C[C@@H](O)CO)c(=O)c23)c(F)c1 [Example 16, (R)-3-(2,3-Dihydroxypropyl)-5-(4-ethynyl-2-fluorophenylamino)-6,8-dimethylpyrido[2,3-d]pyrimidine-4,7(3H,8H)-dione] | 5 to 15
Cn1c(=O)cc(Nc2ccc(Br)cc2F)c2c(=O)n(CCCO)cnc21 [Example 33, 5-(4-Bromo-2-fluorophenylamino)-3-(3-hydroxypropyl)-8-methylpyrido[2,3-d]pyrimidine-4,7(3H,8H)-dione] | ≥ 16
Cn1c(=O)c(Cl)c(Nc2ccc(I)cc2F)c2c(=O)n(CCCO)cnc21 [Example 32, 6-Chloro-5-(2-fluoro-4-iodophenylamino)-3-(3-hydroxypropyl)-8-methylpyrido[2,3-d]pyrimidine-4,7(3H,8H)-dione] | ≤ 5
Cc1c(Nc2ccccc2F)c2c(=O)n(CCO)cnc2n(C)c1=O [Example 15, 5-(2-Fluorophenylamino)-3-(2-hydroxyethyl)-6,8-dimethylpyrido[2,3-d]pyrimidine-4,7(3H,8H)-dione] | ≥ 16
C#Cc1ccc(Nc2c(F)c(=O)n(C)c3ncn(C[C@H](O)CO)c(=O)c23)c(F)c1 [Example 21, (S)-3-(2,3-Dihydroxypropyl)-5-(4-ethynyl-2-fluorophenylamino)-6-fluoro-8-methylpyrido[2,3-d]pyrimidine-4,7(3H,8H)-dione] | 5 to 15
COC(=O)Cn1cnc2c(c(Nc3ccc(I)cc3F)cc(=O)n2C)c1=O [Example 3, Methyl 2-(5-(2-fluoro-4-iodophenylamino)-8-methyl-4,7-dioxo-7,8-dihydropyrido[2,3-d]pyrimidin-3(4H)-yl)acetate] | ≥ 16
Cn1c(=O)cc(Nc2ccc(Br)cc2Cl)c2c(=O)n(CCCO)cnc21 [Example 35, 5-(4-Bromo-2-chlorophenylamino)-3-(3-hydroxypropyl)-8-methylpyrido[2,3-d]pyrimidine-4,7(3H,8H)-dione] | ≥ 16
Cn1c(=O)cc(Nc2ccc(I)cc2F)c2c(=O)n(Cc3ccccc3)cnc21 [Example 42, 3-Benzyl-5-(2-fluoro-4-iodophenylamino)-8-methylpyrido[2,3-d]pyrimidine-4,7(3H,8H)-dione] | ≥ 16
Cn1c(=O)c(F)c(Nc2ccc(I)cc2F)c2c(=O)n(C(CO)CO)cnc21 [Example 25, 3-(1,3-Dihydroxypropan-2-yl)-6-fluoro-5-(2-fluoro-4-iodophenylamino)-8-methylpyrido[2,3-d]pyrimidine-4,7(3H,8H)-dione] | ≤ 5
CN(C)CCn1cnc2c(c(Nc3ccc(I)cc3F)cc(=O)n2C)c1=O [Example 37, 3-(2-(Dimethylamino)ethyl)-5-(2-fluoro-4-iodophenylamino)-8-methylpyrido[2,3-d]pyrimidine-4,7(3H,8H)-dione] | ≥ 16
Cn1c(=O)cc(Nc2ccc(I)cc2F)c2c(=O)n(CCCO)cnc21 [Example 31, 5-(2-Fluoro-4-iodophenylamino)-3-(3-hydroxypropyl)-8-methylpyrido[2,3-d]pyrimidine-4,7(3H,8H)-dione] | ≤ 5
Cn1c(=O)c(F)c(Nc2ccc(NS(C)(=O)=O)cc2F)c2c(=O)n(C[C@@H](O)CO)cnc21 [Example 23, (R)—N-(4-(3-(2,3-Dihydroxypropyl)-6-fluoro-8-methyl-4,7-dioxo-3,4,7,8-tetrahydropyrido[2,3-d]pyrimidin-5-ylamino)-3-fluorophenyl)methanesulfonamide] | ≥ 16
Cn1c(=O)c(F)c(Nc2ccc(I)cc2F)c2c(=O)n(OC[C@H](O)CO)cnc21 [Example 28, (R)-3-(2,3-Dihydroxypropoxy)-6-fluoro-5-(2-fluoro-4-iodophenylamino)-8-methylpyrido[2,3-d]pyrimidine-4,7(3H,8H)-dione] | ≤ 5
Cn1c(=O)c(Cl)c(Nc2ccc(Br)cc2Cl)c2c(=O)n(CCCO)cnc21 [Example 36, 5-(4-Bromo-2-chlorophenylamino)-6-chloro-3-(3-hydroxypropyl)-8-methylpyrido[2,3-d]pyrimidine-4,7(3H,8H)-dione] | ≥ 16
CC(O)Cn1cnc2c(c(Nc3ccc(I)cc3F)cc(=O)n2C)c1=O (centres unmarked) [Example 38, 5-(2-Fluoro-4-iodophenylamino)-3-(2-hydroxypropyl)-8-methylpyrido[2,3-d]pyrimidine-4,7(3H,8H)-dione] | ≥ 16
Cc1c(Nc2ccc(I)cc2F)c2c(=O)n(CCO)cnc2n(C)c1=O [Example 14, 5-(2-Fluoro-4-iodophenylamino)-3-(2-hydroxyethyl)-6,8-dimethylpyrido[2,3-d]pyrimidine-4,7(3H,8H)-dione] | ≤ 5

The remaining lines, values ahead:

IC50 [nM] | Compound
5 to 15 | CC(O)Cn1cnc2c(c(Nc3ccc(I)cc3F)c(Cl)c(=O)n2C)c1=O (centres unmarked) [Example 40, 6-Chloro-5-(2-fluoro-4-iodophenylamino)-3-(2-hydroxypropyl)-8-methylpyrido[2,3-d]pyrimidine-4,7(3H,8H)-dione]
≤ 5 | Cn1c(=O)c(F)c(Nc2ccc(I)cc2F)c2c(=O)n(C[C@@H](O)CO)cnc21 [Example 18, (R)-3-(2,3-Dihydroxypropyl)-6-fluoro-5-(2-fluoro-4-iodophenylamino)-8-methylpyrido[2,3-d]pyrimidine-4,7(3H,8H)-dione]
≥ 16 | Cc1c(Nc2ccc(Br)cc2F)c2c(=O)n(C[C@@H](O)CO)cnc2n(C)c1=O [Example 10, (R)-5-(4-Bromo-2-fluorophenylamino)-3-(2,3-dihydroxypropyl)-6,8-dimethylpyrido[2,3-d]pyrimidine-4,7(3H,8H)-dione]
≥ 16 | Cc1c(Nc2ccc(Br)cc2F)c2c(=O)n(C[C@H](O)CO)cnc2n(C)c1=O [Example 9, (S)-5-(4-Bromo-2-fluorophenylamino)-3-(2,3-dihydroxypropyl)-6,8-dimethylpyrido[2,3-d]pyrimidine-4,7(3H,8H)-dione]
≤ 5 | C#Cc1ccc(Nc2c(F)c(=O)n(C)c3ncn(C[C@@H](O)CO)c(=O)c23)c(F)c1 [Example 22, (R)-3-(2,3-dihydroxypropyl)-5-(4-ethynyl-2-fluorophenylamino)-6-fluoro-8-methylpyrido[2,3-d]pyrimidine-4,7(3H,8H)-dione]
5 to 15 | Cn1c(=O)c(Cl)c(Nc2ccc(Br)cc2F)c2c(=O)n(CCCO)cnc21 [Example 34, 5-(4-Bromo-2-fluorophenylamino)-6-chloro-3-(3-hydroxypropyl)-8-methylpyrido[2,3-d]pyrimidine-4,7(3H,8H)-dione]
5 to 15 | Cn1c(=O)c(Cl)c(Nc2ccc(Br)cc2F)c2c(=O)n(C[C@@H](O)CO)cnc21 [Example 29, (R)-5-(4-Bromo-2-fluorophenylamino)-6-chloro-3-(2,3-dihydroxypropyl)-8-methylpyrido[2,3-d]pyrimidine-4,7(3H,8H)-dione]
≤ 5 | Cn1c(=O)c(F)c(Nc2ccc(I)cc2F)c2c(=O)n(C[C@H](O)CO)cnc21 [Example 19, (S)-3-(2,3-Dihydroxypropyl)-6-fluoro-5-(2-fluoro-4-iodophenylamino)-8-methylpyrido[2,3-d]pyrimidine-4,7(3H,8H)-dione]
≥ 16 | Cc1c(Nc2ccc(Br)cc2F)c2c(=O)n(CCO)cnc2n(C)c1=O [Example 11, 5-(4-Bromo-2-fluorophenylamino)-3-(2-hydroxyethyl)-6,8-dimethylpyrido[2,3-d]pyrimidine-4,7(3H,8H)-dione]
≤ 5 | Cn1c(=O)c(Cl)c(Nc2ccc(I)cc2F)c2c(=O)n(C[C@H](O)CO)cnc21 [Example 7, (S)-6-Chloro-3-(2,3-dihydroxypropyl)-5-(2-fluoro-4-iodophenylamino)-8-methylpyrido[2,3-d]pyrimidine-4,7(3H,8H)-dione]
5 to 15 | C#Cc1ccc(Nc2c(C)c(=O)n(C)c3ncn(C[C@H](O)CO)c(=O)c23)c(F)c1 [Example 44, (S)-3-(2,3-Dihydroxypropyl)-5-(4-ethynyl-2-fluorophenylamino)-6,8-dimethylpyrido[2,3-d]pyrimidine-4,7(3H,8H)-dione]
≤ 5 | Cn1c(=O)c(Cl)c(Nc2ccc(I)cc2F)c2c(=O)n(CCO)cnc21 [Example 30, 6-Chloro-5-(2-fluoro-4-iodophenylamino)-3-(2-hydroxyethyl)-8-methylpyrido[2,3-d]pyrimidine-4,7(3H,8H)-dione]
